Patent US20100119607A1, “BIOENHANCED COMPOSITIONS” (Rubicon Research Pvt. Ltd., priority 2005, published 2010)
≈ marks a conversion by molar mass, not a printed value. Counter-ions that a name gives are not always drawn. Like-named read-outs stand apart in the source and are kept apart here.

How the values were obtained:
[1] = Solubility of candesartan cilexetil dispersions in 0.1N HCl; assay type: physicochemical; details: simulated gastric fluid
[2] = 0.1N HCL with 0.5% SLS, USP Type II, 50 RPM
[3] = background statement in detailed description; cited from earlier work
[4] = Solubility of eprosartan mesylate solid dispersions in 0.1N HCl; assay type: physicochemical; details: simulated gastric fluid, thermodynamic from solid

Compound: CCOc1nc2cccc(C(=O)OC(C)OC(=O)OC3CCCCC3)c2n1Cc1ccc(-c2ccccc2-c2nnn[nH]2)cc1 (centres unmarked) [Candesartan cilexetil, candesartan cilexetil]
- solubility [1]: 0.51 µg/mL (≈ 0.835 µM)

Compound: CCCCC(=O)N(Cc1ccc(-c2ccccc2-c2nnn[nH]2)cc1)[C@H](C(=O)O)C(C)C [Valsartan, valsartan]
- % Cum. Dissolved ([2]; 0 minutes): 0%
- % Cum. Dissolved ([2]; 5 minutes): 1.0%
- % Cum. Dissolved ([2]; 10 minutes): 4.1%
- % Cum. Dissolved ([2]; 15 minutes): 6.7%
- % Cum. Dissolved ([2]; 30 minutes): 6.5%
- % Cum. Dissolved ([2]; 60 minutes): 9.7%
- % Cum. Dissolved ([2]; 120 minutes): 15.7%
- % Cum. Dissolved ([2]; 120 minutes, listed as pure valsartan): 15%
- bioavailability [3]: 10-25%

Compound: CCCCc1ncc(/C=C(\Cc2cccs2)C(=O)O)n1Cc1ccc(C(=O)O)cc1 [Eprosartan mesylate, eprosartan mesylate]
- solubility [4]: 712 µg/mL
